Test results published in PubChem BioAssay (NCI).
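These data come from cells grown in 96-well plates and exposed to compound for 48 hours at five concentrations. TGI: concentration producing complete growth inhibition.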

Test system: A549 NSCLC
Test: inhibition of tumour cell growth, NCI panel, 48 h

SMILES | TGI [µM]
COc1ccc(N2C(=O)C3c4[nH]c5ccccc5c4C4C(C)CCCC4C3C2=O)cc1 (stereo not given) | > 100
CCOC(=O)Cc1nn2c(=O)cc(C)nc2s1 | > 100
COP(=O)(CC(=O)C1OC(OCc2ccccc2)C(OCc2ccccc2)C(OCc2ccccc2)C1OCc1ccccc1)OC (stereo not given) | > 100
CCOC1NC(=O)c2ccccc21 (stereo not given) | > 100
CCN(C(=O)N[C@H](C(=O)N[C@@H](C)C(=O)OC)C(C)C)c1ccccc1 | > 100
Cc1cc2c(cc1Cl)SC(NNc1cnc3ccccc3n1)=NS2(=O)=O | > 100
O=[N+]([O-])c1ccc2nc3c(nc2c1)-c1c2ccccc2cc2cccc-3c12 | > 100
COc1ccc(CN2C(=O)C(=O)N(C)C2=O)c2ccccc12 | > 10
OCC1OC(O[C@H]2CN3[C@H](O)[C@@H](O)[C@H](O)[C@H]3C2O)C(O)C(O)C1O (stereo not given in full) | > 100
CC1OC(n2cc(F)c(=O)[nH]c2=O)C(O[Si](C)(C)C(C)(C)C)C1O[Si](C)(C)C(C)(C)C (stereo not given) | 54.2
O=S1(=O)c2ccccc2NC(=S)N1c1ccccc1 | > 100
COC(=O)C(CCSC)NC(=O)CSc1nnc(COc2ccc(Cl)cc2)n1-c1ccccc1 (stereo not given) | > 70.8
Cc1ccc(-n2cc(-c3ccc(Cl)cc3)c3c2N=CN2NC(c4ccco4)=NC32)cc1 (stereo not given) | > 100
COc1cc(/C=C/c2cc(=O)cc(/C=C/c3ccc(O)c(OC)c3)o2)ccc1O | > 100
COn1cc(CO)c2ccccc21 | > 100
COc1cc2nc(-c3c(F)cccc3F)n(Cc3c(F)cccc3F)c2cc1Cc1c(F)cccc1F | > 100
O=C(/C=C1\C[C@H]2C=Nc3ccccc3C(=O)N2C1)NCCCCCNC(=O)/C=C1\C[C@H]2C=Nc3ccccc3C(=O)N2C1 | 54.6

Test system: DU-145 prostate
Test: inhibition of tumour cell growth, NCI panel, 48 h

SMILES | TGI [µM]
COc1ccc(N2C(=O)C3c4[nH]c5ccccc5c4C4C(C)CCCC4C3C2=O)cc1 (stereo not given) | > 100
CCOC(=O)Cc1nn2c(=O)cc(C)nc2s1 | > 100
COP(=O)(CC(=O)C1OC(OCc2ccccc2)C(OCc2ccccc2)C(OCc2ccccc2)C1OCc1ccccc1)OC (stereo not given) | > 100
CCOC1NC(=O)c2ccccc21 (stereo not given) | > 100
CCN(C(=O)N[C@H](C(=O)N[C@@H](C)C(=O)OC)C(C)C)c1ccccc1 | > 100
Cc1cc2c(cc1Cl)SC(NNc1cnc3ccccc3n1)=NS2(=O)=O | > 100
O=[N+]([O-])c1ccc2nc3c(nc2c1)-c1c2ccccc2cc2cccc-3c12 | > 100
COc1ccc(CN2C(=O)C(=O)N(C)C2=O)c2ccccc12 | > 10
OCC1OC(O[C@H]2CN3[C@H](O)[C@@H](O)[C@H](O)[C@H]3C2O)C(O)C(O)C1O (stereo not given in full) | > 100
CC1OC(n2cc(F)c(=O)[nH]c2=O)C(O[Si](C)(C)C(C)(C)C)C1O[Si](C)(C)C(C)(C)C (stereo not given) | 26.8
O=S1(=O)c2ccccc2NC(=S)N1c1ccccc1 | > 100
COC(=O)C(CCSC)NC(=O)CSc1nnc(COc2ccc(Cl)cc2)n1-c1ccccc1 (stereo not given) | 33
Cc1ccc(-n2cc(-c3ccc(Cl)cc3)c3c2N=CN2NC(c4ccco4)=NC32)cc1 (stereo not given) | > 100
COc1cc(/C=C/c2cc(=O)cc(/C=C/c3ccc(O)c(OC)c3)o2)ccc1O | > 100
COn1cc(CO)c2ccccc21 | > 100
COc1cc2nc(-c3c(F)cccc3F)n(Cc3c(F)cccc3F)c2cc1Cc1c(F)cccc1F | > 100
O=C(/C=C1\C[C@H]2C=Nc3ccccc3C(=O)N2C1)NCCCCCNC(=O)/C=C1\C[C@H]2C=Nc3ccccc3C(=O)N2C1 | 27.4

Test system: HCT-15 colon
Test: inhibition of tumour cell growth, NCI panel, 48 h

SMILES | TGI [µM]
COc1ccc(N2C(=O)C3c4[nH]c5ccccc5c4C4C(C)CCCC4C3C2=O)cc1 (stereo not given) | > 100
CCOC(=O)Cc1nn2c(=O)cc(C)nc2s1 | > 100
COP(=O)(CC(=O)C1OC(OCc2ccccc2)C(OCc2ccccc2)C(OCc2ccccc2)C1OCc1ccccc1)OC (stereo not given) | > 100
CCOC1NC(=O)c2ccccc21 (stereo not given) | > 100
CCN(C(=O)N[C@H](C(=O)N[C@@H](C)C(=O)OC)C(C)C)c1ccccc1 | > 100
Cc1cc2c(cc1Cl)SC(NNc1cnc3ccccc3n1)=NS2(=O)=O | > 100
O=[N+]([O-])c1ccc2nc3c(nc2c1)-c1c2ccccc2cc2cccc-3c12 | > 100
COc1ccc(CN2C(=O)C(=O)N(C)C2=O)c2ccccc12 | > 10
OCC1OC(O[C@H]2CN3[C@H](O)[C@@H](O)[C@H](O)[C@H]3C2O)C(O)C(O)C1O (stereo not given in full) | > 100
CC1OC(n2cc(F)c(=O)[nH]c2=O)C(O[Si](C)(C)C(C)(C)C)C1O[Si](C)(C)C(C)(C)C (stereo not given) | 25.6
O=S1(=O)c2ccccc2NC(=S)N1c1ccccc1 | > 100
COC(=O)C(CCSC)NC(=O)CSc1nnc(COc2ccc(Cl)cc2)n1-c1ccccc1 (stereo not given) | 39.8
Cc1ccc(-n2cc(-c3ccc(Cl)cc3)c3c2N=CN2NC(c4ccco4)=NC32)cc1 (stereo not given) | > 100
COc1cc(/C=C/c2cc(=O)cc(/C=C/c3ccc(O)c(OC)c3)o2)ccc1O | > 100
COn1cc(CO)c2ccccc21 | > 100
COc1cc2nc(-c3c(F)cccc3F)n(Cc3c(F)cccc3F)c2cc1Cc1c(F)cccc1F | > 100
O=C(/C=C1\C[C@H]2C=Nc3ccccc3C(=O)N2C1)NCCCCCNC(=O)/C=C1\C[C@H]2C=Nc3ccccc3C(=O)N2C1 | 10.6

Test system: NCI-H522 lung
Test: inhibition of tumour cell growth, NCI panel, 48 h

SMILES | TGI [µM]
COc1ccc(N2C(=O)C3c4[nH]c5ccccc5c4C4C(C)CCCC4C3C2=O)cc1 (stereo not given) | > 56.3
CCOC(=O)Cc1nn2c(=O)cc(C)nc2s1 | > 100
COP(=O)(CC(=O)C1OC(OCc2ccccc2)C(OCc2ccccc2)C(OCc2ccccc2)C1OCc1ccccc1)OC (stereo not given) | > 100
CCOC1NC(=O)c2ccccc21 (stereo not given) | > 100
CCN(C(=O)N[C@H](C(=O)N[C@@H](C)C(=O)OC)C(C)C)c1ccccc1 | 49.5
Cc1cc2c(cc1Cl)SC(NNc1cnc3ccccc3n1)=NS2(=O)=O | > 100
O=[N+]([O-])c1ccc2nc3c(nc2c1)-c1c2ccccc2cc2cccc-3c12 | 7.85
COc1ccc(CN2C(=O)C(=O)N(C)C2=O)c2ccccc12 | > 10
OCC1OC(O[C@H]2CN3[C@H](O)[C@@H](O)[C@H](O)[C@H]3C2O)C(O)C(O)C1O (stereo not given in full) | > 100
CC1OC(n2cc(F)c(=O)[nH]c2=O)C(O[Si](C)(C)C(C)(C)C)C1O[Si](C)(C)C(C)(C)C (stereo not given) | 16.8
O=S1(=O)c2ccccc2NC(=S)N1c1ccccc1 | > 73.3
COC(=O)C(CCSC)NC(=O)CSc1nnc(COc2ccc(Cl)cc2)n1-c1ccccc1 (stereo not given) | 18.1
Cc1ccc(-n2cc(-c3ccc(Cl)cc3)c3c2N=CN2NC(c4ccco4)=NC32)cc1 (stereo not given) | 90
COc1cc(/C=C/c2cc(=O)cc(/C=C/c3ccc(O)c(OC)c3)o2)ccc1O | > 100
COn1cc(CO)c2ccccc21 | 72.9
COc1cc2nc(-c3c(F)cccc3F)n(Cc3c(F)cccc3F)c2cc1Cc1c(F)cccc1F | > 100
O=C(/C=C1\C[C@H]2C=Nc3ccccc3C(=O)N2C1)NCCCCCNC(=O)/C=C1\C[C@H]2C=Nc3ccccc3C(=O)N2C1 | 2.51

Test system: OVCAR-5 ovarian
Test: inhibition of tumour cell growth, NCI panel, 48 h

SMILES | TGI [µM]
COc1ccc(N2C(=O)C3c4[nH]c5ccccc5c4C4C(C)CCCC4C3C2=O)cc1 (stereo not given) | > 100
CCOC(=O)Cc1nn2c(=O)cc(C)nc2s1 | > 100
COP(=O)(CC(=O)C1OC(OCc2ccccc2)C(OCc2ccccc2)C(OCc2ccccc2)C1OCc1ccccc1)OC (stereo not given) | > 100
CCOC1NC(=O)c2ccccc21 (stereo not given) | > 100
CCN(C(=O)N[C@H](C(=O)N[C@@H](C)C(=O)OC)C(C)C)c1ccccc1 | > 100
Cc1cc2c(cc1Cl)SC(NNc1cnc3ccccc3n1)=NS2(=O)=O | > 100
O=[N+]([O-])c1ccc2nc3c(nc2c1)-c1c2ccccc2cc2cccc-3c12 | > 100
COc1ccc(CN2C(=O)C(=O)N(C)C2=O)c2ccccc12 | > 10
OCC1OC(O[C@H]2CN3[C@H](O)[C@@H](O)[C@H](O)[C@H]3C2O)C(O)C(O)C1O (stereo not given in full) | > 100
CC1OC(n2cc(F)c(=O)[nH]c2=O)C(O[Si](C)(C)C(C)(C)C)C1O[Si](C)(C)C(C)(C)C (stereo not given) | 31.1
O=S1(=O)c2ccccc2NC(=S)N1c1ccccc1 | > 100
COC(=O)C(CCSC)NC(=O)CSc1nnc(COc2ccc(Cl)cc2)n1-c1ccccc1 (stereo not given) | 38.7
Cc1ccc(-n2cc(-c3ccc(Cl)cc3)c3c2N=CN2NC(c4ccco4)=NC32)cc1 (stereo not given) | > 100
COc1cc(/C=C/c2cc(=O)cc(/C=C/c3ccc(O)c(OC)c3)o2)ccc1O | > 100
COn1cc(CO)c2ccccc21 | 42.5
COc1cc2nc(-c3c(F)cccc3F)n(Cc3c(F)cccc3F)c2cc1Cc1c(F)cccc1F | > 100
O=C(/C=C1\C[C@H]2C=Nc3ccccc3C(=O)N2C1)NCCCCCNC(=O)/C=C1\C[C@H]2C=Nc3ccccc3C(=O)N2C1 | 33.7
